Assay: PPB Fu (m)
Format: in vitro ADME
Conditions: mouse, plasma

CC1(C(=O)N2CCC(O)(Cn3cnc4c(cc(Cl)n4-c4ccc5c(c4)CCO5)c3=O)CC2)CC1 [ADC-159, 6-Chloro-7-(2,3-dihydrobenzofuran-5-yl)-3-((4-hydroxy-1-(1-methylcyclopropane-1-carbonyl)piperidin-4-yl)methyl)-3,7-dihydro-4H-pyrrolo[2,3-d]pyrimidin-4-One] gave a fraction unbound of 0.1.

Reference: patent publication US20230088286A1, “USP7 INHIBITOR FOR USE IN THE TREATMENT OF CANCER” (ALMAC DISCOVERY LIMITED, priority 2020, published 2023)
